In general, pIC50 refers to the negative decadic logarithm of the IC50, by convention in mol/L.

The target in this experiment is T1, human αVβ6 (Homo sapiens, UniProt P06756+P18564).
T1 construct: purchased R & D systems 3817-AV
Description: human αVβ6 HTRF binding assay. Particulars: alternatively SPA-based assay. As to the method:
All binding assays used the HTRF (homogeneous time resolved fluorescence) technology from Cisbio International, therefore all assays are described as HTRF binding assays. The assay results for the Examples are listed above together with the characterization data. The HTRF binding assays are established for the following integrins: human αVβ6, human αVβ1, human αVβ3, human αVβ5, and human αVβ8. All assays used the following assay buffer: 20 mM Tris, pH 7.4, 1 mM MgCl2, 1 mM MnCl2, 0.01% Tween 20, and 0.01% BSA. Alternatively, a SPA-based assay was used for evaluation of receptor binding.
The following describes the components and a representative procedure for the human αVβ6 HTRF binding assay: Recombinant human αVβ6 Integrin (R & D systems, 3817-AV) was biotinylated. Biotinylated human αVβ6 Integrin was added to assay vessel at a final concentration of 1.25 nM. FITC-conjugated fibronectin (Cytoskeleton, FNR02) was then added at the final concentration of 5 nM. The mixture was centrifuged at 600 rpm for three minutes using Thermo Fisher Heraeus Multifuge X3 centrifuge and then incubated at RT for an hour. Streptavidin Terbium (Cisbio international 610STLB) was then added at the final concentration of 0.625 nM. The resulting mixture was centrifuged at 600 rpm for three minutes using Thermo Fisher Heraeus Multifuge X3 centrifuge and then incubated at room temperature overnight in dark before reading HTRF signals.
The SPA-based assay was carried out according to the protocol and procedures similar to the ones described in the following reference with appropriate modifications to agents and ligands which are readily understood by one skilled in the art: Pachter J A, Zhang R, Mayer-Ezell R., “Scintillation proximity assay to measure binding of soluble fibronectin to antibody-captured αVβ1 integrin” Anal Biochem. 1995 Sep. 1; 230(1):101-7.
Background: In TR-FRET formats the signal depends on donor and acceptor labels being close together.

pIC50: −log10 of the molar value. Counter-ions that a name gives are not always drawn.

T1 sequence (P06756 31-992 limits assumed): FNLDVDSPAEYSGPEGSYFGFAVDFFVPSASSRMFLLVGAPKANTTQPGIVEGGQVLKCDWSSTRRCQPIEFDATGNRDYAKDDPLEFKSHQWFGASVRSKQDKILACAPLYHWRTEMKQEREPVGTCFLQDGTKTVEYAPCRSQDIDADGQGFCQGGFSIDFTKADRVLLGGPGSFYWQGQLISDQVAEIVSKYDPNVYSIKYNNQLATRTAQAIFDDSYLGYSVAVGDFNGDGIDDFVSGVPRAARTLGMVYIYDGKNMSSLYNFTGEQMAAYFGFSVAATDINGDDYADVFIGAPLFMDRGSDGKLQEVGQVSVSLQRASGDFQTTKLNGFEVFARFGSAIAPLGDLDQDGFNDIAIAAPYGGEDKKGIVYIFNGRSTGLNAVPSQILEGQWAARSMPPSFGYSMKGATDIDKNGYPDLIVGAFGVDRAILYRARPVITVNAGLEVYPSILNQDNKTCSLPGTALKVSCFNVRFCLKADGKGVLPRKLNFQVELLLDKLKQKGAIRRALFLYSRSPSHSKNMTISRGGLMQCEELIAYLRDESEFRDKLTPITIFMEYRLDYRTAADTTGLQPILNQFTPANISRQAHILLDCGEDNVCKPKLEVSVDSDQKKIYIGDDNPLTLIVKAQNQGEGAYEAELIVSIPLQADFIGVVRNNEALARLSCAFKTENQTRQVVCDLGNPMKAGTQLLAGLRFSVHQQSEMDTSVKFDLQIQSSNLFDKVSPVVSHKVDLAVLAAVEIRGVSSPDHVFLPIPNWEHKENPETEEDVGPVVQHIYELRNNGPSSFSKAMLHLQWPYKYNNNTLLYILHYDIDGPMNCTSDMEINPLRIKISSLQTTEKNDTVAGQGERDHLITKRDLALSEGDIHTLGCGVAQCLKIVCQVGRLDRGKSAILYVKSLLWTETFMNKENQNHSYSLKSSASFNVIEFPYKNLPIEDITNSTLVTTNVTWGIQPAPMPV
T1 sequence (P18564 22-707 limits assumed): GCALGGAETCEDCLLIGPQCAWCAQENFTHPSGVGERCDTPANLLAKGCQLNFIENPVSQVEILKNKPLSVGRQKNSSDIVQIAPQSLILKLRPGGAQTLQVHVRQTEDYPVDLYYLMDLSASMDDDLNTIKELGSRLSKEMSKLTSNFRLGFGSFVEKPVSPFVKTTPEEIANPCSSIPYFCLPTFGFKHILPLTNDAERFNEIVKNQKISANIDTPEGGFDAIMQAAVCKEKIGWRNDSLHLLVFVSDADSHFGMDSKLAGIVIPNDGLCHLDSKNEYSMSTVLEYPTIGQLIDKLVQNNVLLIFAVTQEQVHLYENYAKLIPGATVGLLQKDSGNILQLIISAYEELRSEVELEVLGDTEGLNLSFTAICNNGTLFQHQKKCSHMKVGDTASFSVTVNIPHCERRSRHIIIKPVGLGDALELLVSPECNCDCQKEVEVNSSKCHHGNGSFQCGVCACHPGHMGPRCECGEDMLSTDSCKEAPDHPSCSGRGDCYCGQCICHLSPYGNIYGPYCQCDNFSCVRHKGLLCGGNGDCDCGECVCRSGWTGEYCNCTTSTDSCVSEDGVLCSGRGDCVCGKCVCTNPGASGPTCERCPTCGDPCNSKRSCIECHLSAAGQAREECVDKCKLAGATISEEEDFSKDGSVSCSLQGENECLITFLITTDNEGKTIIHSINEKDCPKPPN

Consider `COc1ccc([C@H](CC(=O)O)C2(F)CN(C(=O)CCCc3ccc4c(n3)NCCC4)C2)cc1F` [Example 94], for which the pIC50 is 8.00.

In turn, `COc1ccc([C@@H](CC(=O)O)C2(F)CN(C(=O)CCCc3ccc4c(n3)NCCC4)C2)cc1F` [Example 95] gave a pIC50 of 6.64. Compared with the last compound, the pIC50 is 1.36 log units lower.

Take `CN(C1CN(CCCc2ccc3c(n2)NCCC3)C1)[C@@H](CC(=O)O)c1cc(Cl)cc(Cl)c1` [Example 98]: the pIC50 was 9.28.

Compound `COc1ccc(C(CC(=O)O)C2CC3(C2)CN(CCCc2ccc4c(n2)NCCC4)C3)cn1` (stereo not drawn) [Example 99] had a pIC50 of 8.23.

Consider `COc1ccc(C(CC(=O)O)C2CC3(C2)CN(CCc2ccc4c(n2)NCCC4)C3)cn1` (stereo not drawn) [Example 100], for which the pIC50 is 8.62.

`O=C(O)CC(c1cnc2ccccc2c1)C1CC2(C1)CN(CCc1ccc3c(n1)NCCC3)C2` (stereo not drawn) [Example 101]: the pIC50 was 8.33.

As to `O=C(O)C[C@@H](c1ccc2c(c1)OCC2)N1CC(CCCCc2ccc3c(n2)NCCC3)C1=O` (stereo partly drawn) [Example 105], the pIC50 was 8.41.

`O=C(O)C[C@@H](c1cnc2ccccc2c1)N1CC(CCCCc2ccc3c(n2)NCCC3)C1=O` (stereo partly drawn) [Example 107] gave a pIC50 of 8.57.

`O=C(O)C[C@@H](c1cc(Cl)cc(Cl)c1)N1CC(CCCCc2ccc3c(n2)NCCC3)C1=O` (stereo partly drawn) [Example 108] gave a pIC50 of 9.14.

Take `O=C(O)C[C@@H](c1cc(Cl)cc(Cl)c1)N1CC(CCCCc2ccc3c(n2)NCCC3)C1=O` (stereo partly drawn) [Example 109]: the pIC50 was 9.05.

`O=C(O)C[C@@H](c1ccc2c(c1)CCO2)N1CC(CCCCc2ccc3c(n2)NCCC3)C1=O` (stereo partly drawn) [Example 111] showed a pIC50 of 8.22.

For `O=C(O)C[C@@H](c1ccc(F)c(F)c1)N1CC(CCCCc2ccc3c(n2)NCCC3)C1=O` (stereo partly drawn) [Example 112], the pIC50 is 8.41.

Consider `O=C(O)C[C@@H](c1ccc(F)c(F)c1)N1CC(CCCCc2ccc3c(n2)NCCC3)C1=O` (stereo partly drawn) [Example 113], for which the pIC50 is 7.92.

Regarding `COc1ccc(C(CC(=O)O)C2CC3(C2)CN(CCc2ccc4c(n2)NCCC4)C3)cc1F` (stereo not drawn) [Example 116], the pIC50 is 8.62.

`O=C(O)CC(c1cnc2ccccc2c1)C1CC2(C1)CN(CCCc1ccc3c(n1)NCCC3)C2` (stereo not drawn) [Example 117] gave a pIC50 of 8.57.

`O=C(O)CC(c1cnc2ccccc2c1)C1(F)CN(CCCCc2ccc3c(n2)NCCC3)C1` (stereo not drawn) [Example 118] showed a pIC50 of 8.23.

Regarding `O=C(O)CCN(C(=O)OCc1ccccc1)C1CN(CCCc2ccc3c(n2)NCCC3)C1` [Example 119], the pIC50 was 8.13.

Take `Cc1ncc([C@H](CC(=O)O)NC(=O)N2CC(CCc3ccc4c(n3)NCCC4)C2)cn1` [Example 120]: the pIC50 was 8.23. The pIC50 values of the last two compounds are within 0.2 log units of each other.

Take `O=C(O)C[C@H](NC(=O)N1CC(CCc2ccc3c(n2)NCCC3)C1)c1cncnc1` [Example 121]: the pIC50 was 8.21.

`COc1ccc(C(CC(=O)O)C2(F)CN(CCCCc3ccc4c(n3)NCCC4)C2)cn1` (stereo not drawn) [Example 122] had a pIC50 of 7.55.

For `COc1ncc([C@H](CC(=O)O)NC(=O)N2CC(CCc3ccc4c(n3)NCCC4)C2)cn1` [Example 123], the pIC50 was 8.37.

`O=C(O)CCC1CC2(C1)CC(CCc1ccc3c(n1)NCCC3)C2` (stereo not drawn) [Example 124] showed a pIC50 of 7.03.

On to `COc1ccc(C(CC(=O)O)C2CC(NCCCc3ccc4c(n3)NCCC4)C2)cn1` (stereo not drawn) [Example 125], for which the pIC50 is 8.24. This pIC50 is 1.21 log units higher than that of the compound before.

`COc1ccc(C(CC(=O)O)C2CC(NCCCc3ccc4c(n3)NCCC4)C2)cc1F` (stereo not drawn) [Example 126] showed a pIC50 of 8.38.

For `Cc1ncc(C(CC(=O)O)N2CC(COCCc3ccc4c(n3)NCCC4)C2)cn1` (stereo not drawn) [Example 127, 3-(2-methylpyrimidin-5-yl)-3-(3-((2-(5,6,7,8-tetrahydro-1,8-naphthyridin-2-yl)ethoxy)methyl)azetidin-1-yl)propanoic acid, 2 TFA], the negative logarithm of the IC50 (pIC50) is 8.10. This pIC50 lies 0.28 log units lower than the previous one.

Compound `Cc1ncc(C(CC(=O)O)N2CC(OCCCc3ccc4c(n3)NCCC4)C2)cn1` (stereo not drawn) [Example 130, 3-(2-methylpyrimidin-5-yl)-3-(3-(3-(5,6,7,8-tetrahydro-1,8-naphthyridin-2-yl)propoxy)azetidin-1-yl)propanoic acid, 2 TFA] had a pIC50 of 8.09. The pIC50 values of the last two compounds are within 0.2 log units of each other.

Turning to `O=C(O)CC(c1cnc2ccccc2c1)N1CC(OCCCc2ccc3c(n2)NCCC3)C1` (stereo not drawn) [Example 133], the pIC50 is 8.25. The pIC50 values of the last two compounds are within 0.2 log units of each other.

As for `COc1ccc(C(CC(=O)O)N2CC(OCCCc3ccc4c(n3)NCCC4)C2)cn1` (stereo not drawn) [Example 134, 3-(6-methoxypyridin-3-yl)-3-(3-(3-(5,6,7,8-tetrahydro-1,8-naphthyridin-2-yl)propoxy)azetidin-1-yl)propanoic acid, 2 TFA], the pIC50 is 8.34.

In turn, `COc1ccc(C(CC(=O)O)N2CC(OCCCc3ccc4c(n3)NCCC4)C2)cc1F` (stereo not drawn) [Example 135, 3-(3-fluoro-4-methoxyphenyl)-3-(3-(3-(5,6,7,8-tetrahydro-1,8-naphthyridin-2-yl)propoxy)azetidin-1-yl)propanoic acid, 2 TFA] had a pIC50 of 8.31.

In turn, `COc1ccc([C@@H](CC(=O)O)N2CC(OCCCc3ccc4c(n3)NCCC4)C2)cc1F` [Example 137, (R)-3-(3-fluoro-4-methoxyphenyl)-3-(3-(3-(5,6,7,8-tetrahydro-1,8-naphthyridin-2-yl)propoxy)azetidin-1-yl)propanoic acid] had a pIC50 of 6.80.

Consider `COc1ccc(C(CC(=O)O)C2CC(CCCCc3ccc4c(n3)NCCC4)C2)cn1` (stereo not drawn) [Example 138, 3-(6-Methoxypyridin-3-yl)-3-(3-(4-(5,6,7,8-tetrahydro-1,8-naphthyridin-2-yl)butyl)cyclobutyl)propanoic acid], for which the pIC50 was 8.49.

As for `COc1ccc(C(CC(=O)O)C2CC3(CC(CCc4ccc5c(n4)NCCC5)C3)C2)cn1` (stereo not drawn) [Example 141], the pIC50 was 8.54.

For the compound `O=C(O)CC(c1cnc2ccccc2c1)C1CN(CCCCc2ccc3c(n2)NCCC3)C1` (stereo not drawn) [Example 142], the pIC50 is 8.00.

The compound `COc1ccc(C(CC(=O)O)C2CN(CCCCc3ccc4c(n3)NCCC4)C2)cc1F` (stereo not drawn) [Example 143] gave a pIC50 of 8.07.

In turn, `O=C(O)CC(c1ccc(N2CCOCC2)nc1)C1CC2(CC(CCc3ccc4c(n3)NCCC4)C2)C1` (stereo not drawn) [Example 144] had a pIC50 of 8.31. This pIC50 lies 0.24 log units higher than the previous one.

In the case of `O=C(O)CC(c1cccc(N2CCOCC2)c1)C1CC2(CC(CCc3ccc4c(n3)NCCC4)C2)C1` (stereo not drawn) [Example 145], the pIC50 is 8.57.

For `O=C(O)CC(c1cccc(N2CCOCC2)c1)C1CC(CCCCc2ccc3c(n2)NCCC3)C1` (stereo not drawn) [Example 146, 3-(3-Morpholinophenyl)-3-(3-(4-(5,6,7,8-tetrahydro-1,8-naphthyridin-2-yl)butyl)cyclobutyl)propanoic acid], the pIC50 was 7.85.

Compound `O=C(O)CC(c1ccc2nccnc2c1)C1CC(NCCCc2ccc3c(n2)NCCC3)C1` (stereo not drawn) [Example 148] had a pIC50 of 8.19. Compared with the last compound, the pIC50 is 0.34 log units higher.

For the compound `CC(=O)N(CCCc1ccc2c(n1)NCCC2)C1CC(C(CC(=O)O)c2cccc(N3CCOCC3)c2)C1` (stereo not drawn) [Example 149, 3-(3-Morpholinophenyl)-3-(3-(N-(3-(5,6,7,8-tetrahydro-1,8-naphthyridin-2-yl)propyl)acetamido)cyclobutyl)propanoic acid], the pIC50 is 8.34.

`CC(=O)N(CCCc1ccc2c(n1)NCCC2)C1CC(C(CC(=O)O)c2ccc3nccnc3c2)C1` (stereo not drawn) [Example 150] gave a pIC50 of 8.17. This pIC50 and that of the compound before are within 0.2 log units of each other.

In the case of `COc1ccc([C@H](CC(=O)O)N2CC(CCCCc3ccc4c(n3)NCCC4)C2)cn1` [Example 151], the negative logarithm of the IC50 (pIC50) was 8.44.

For the compound `O=C(O)C[C@@H](c1cc(F)cc(F)c1)N1CC(CCCCc2ccc3c(n2)NCCC3)C1` [Example 152], the pIC50 was 8.85.

In the case of `O=C(O)C[C@@H](c1cnc2ccccc2c1)N1CC(CCCCc2ccc3c(n2)NCCC3)C1` [Example 153], the pIC50 is 8.96.

As to `O=C(O)C[C@@H](c1ccc(F)c(F)c1)N1CC(CCCCc2ccc3c(n2)NCCC3)C1` [Example 154], the pIC50 was 8.96.

Regarding `O=C(O)C[C@@H](c1ccc2c(c1)OCC2)N1CC(CCCCc2ccc3c(n2)NCCC3)C1` [Example 155], the pIC50 is 8.82.

`COc1ncc([C@H](CC(=O)O)N2CC(CCCCc3ccc4c(n3)NCCC4)C2)cn1` [Example 156]: the pIC50 is 8.54.

Take `O=C(O)C[C@@H](c1cncnc1)N1CC(CCCCc2ccc3c(n2)NCCC3)C1` [Example 157]: the pIC50 was 8.52.

With `COc1ccc([C@H](CC(=O)O)N2CC(C)(CCCCc3ccc4c(n3)NCCC4)C2)cc1F` [Example 158, (S)-3-(3-fluoro-4-methoxyphenyl)-3-(3-methyl-3-(4-(5,6,7,8-tetrahydro-1,8-naphthyridin-2-yl)butyl)azetidin-1-yl)propanoic acid], the pIC50 is 8.96.

On to `CC1(CCCCc2ccc3c(n2)NCCC3)CN([C@@H](CC(=O)O)c2cnc3ccccc3c2)C1` [Example 159], for which the pIC50 is 8.82.

Consider `CC1(CCCCc2ccc3c(n2)NCCC3)CN([C@@H](CC(=O)O)c2cc(F)cc(F)c2)C1` [Example 160], for which the pIC50 is 8.89.

The compound `CC1(CCCCc2ccc3c(n2)NCCC3)CN([C@@H](CC(=O)O)c2ccc(F)c(F)c2)C1` [Example 161] showed a negative-log IC50 (pIC50) of 9.07.
